Results: patent US6395906B1, “Intermediates to pesticidal 1-arylpyrazoles” (Rhone-Poulenc Inc., priority 1995, dated 2002)

Experiments:
Assay type in all cases: in vivo
[1] = test system: buckthorn aphid (Aphis nasturtii); test: Buckthorn aphid (BA) foliar spray test; settings: nasturtium plants wet to runoff, 100 or 500 ppm; dead aphids counted after one day
Description: (§1) For the tick, aphids, souther armyworm, tobacco budworm, house fly, Mexican bean beetle, American cockroach, cat flea, souther corn rootworm, western corn rootworm, black cutworm, and southern root-knot nematode, a solution or suspension was prepared by adding the test compound to a solution of dimethylformamide, acetone, emulsifiers which are alkylaryl polyether alcohols organic sulfonates, and water. The result was a 100 or 500 ppm concentration of the test compound.
Buckthorn aphid (BA) or cotton aphid (CA): Adult and nymphal stages of buckthorn or cotton aphid were reared on potted dwarf nasturtium or cotton plants, respectively. Plants infested with 100-150 aphids were wet to runoff with the 100 or 500 ppm test compound formulation. As an untreated control, a water-acetone-DMF-emulsifier solution containing no test compound was also applied to runoff to infested plants. The treated plants were stored for one day for buckthorn aphid and three days for cotton aphid, after which the dead aphids were counted.

[2] = test system: tobacco budworm (Heliothis virescens); test: Tobacco budworm (TBW) treated cotton leaf test; settings: cotton leaves, 100 ppm; second instar larvae, five days
In short: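 Leaf-dip test: cotton leaves wetted to runoff with 100 ppm compound in DMF/acetone/emulsifier/water, dried, then offered to ten second-instar Heliothis virescens larvae in closed cups with moist wicks. Mortality scored after five days; larvae unable to move one body length on prodding counted dead; solvent-emulsifier control run alongside.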

[3] = test system: Mexican bean beetle (Epilachna varivestis); test: Mexican bean beetle (MBB) treated bean leaf test; settings: bean leaves, 100 or 500 ppm; second instar larvae, five days
Description: as §1
Southern armyworm (SAW), Mexican bean beetle (MBB): Bean leaves were wet to runoff with the 100 or 500 ppm test compound formulation. As an untreated control, a water-acetone-DMF-emulsifier solution containing no test compound was also applied wet to runoff to bean leaves. Five or six randomly selected second instar southern armyworn larvae or Mexican bean bettle larvae were introduced into each plastic container with the dry treated leaves. The container was closed and held for five days. Larvae which were unable to move the length of the body, even upon stimulation by prodding, were considered dead.

[4] = test system: American cockroach (Periplaneta americana); test: American cockroach (ACR) treated food pellet test; settings: food pellets with 500 ppm formulation; nymphs, contact and feeding mortality 1 and 5 days after infestation
In short: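 Pet-food pellets treated with 500 ppm compound in DMF/acetone/emulsifier/water; solvent-only blank as control. Nymphs added after 48 h; contact and feeding mortality scored 1 and 5 days post-infestation.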

[5] = test system: dog tick (Rhipicephalus sanguineus); test: Dog tick (DT) treated filter paper contact test; settings: 500 ppm, adult ticks, contact mortality 14 days after infestation
Description: as §1
(§2) Cat flea (CF), dog tick (DT): Filter papers were treated with an aliquot of the 500 ppm test formulation. As an untreated control, an aliquot of a water-acetone-DMF-emulsifier solution containing no test compound was applied in a similar manner. When dry, 2 treated filters were placed in a vial for the flea and another 2 filters in a vial for the tick. Five adult fleas were added to one vial and 5 adult ticks to the second vial. Contact mortality was assessed 1 day after infestation for the flea and 14 days after infestation for the tick.

[6] = test system: cat flea (Ctenocephalides felis); test: Cat flea (CF) treated filter paper contact test; settings: 500 ppm, adult fleas, contact mortality 1 day after infestation
Description: as §1, §2

[7] = test system: western corn rootworm (Diabrotica virgifera virgifera); test: Western corn rootworm (WCRW) soil test; settings: soil concentration 0.15 or 0.5 ppm; neonate larvae, mortality six days after infestation
In short: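 Test formulation applied to dry sandy loam soil in a jar for 0.15 or 0.5 ppm soil concentration; solvent-only untreated control. After 24 h covered incubation, four germinated corn seedlings and ten neonate larvae added. Mortality assessed 6 days after infestation by Berlese funnel extraction.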

SMILES | BA [1] | TBW [2] | MBB [3] | ACR [4] | DT [5] | CF [6] | WCRW [7]
CC(=O)c1c(S(=O)(=O)C(F)(F)F)c(C#N)nn1-c1c(Cl)cc(C(F)(F)F)cc1Cl [Compound 1, 5-Acetyl-3-cyano-1-(2,6-dichloro-4-trifluoromethylphenyl)-4-trifluoromethylsulfonylpyrazole] | + (active against 1 or more insects described above up to 100% mortality. This activity is indicated by a “+”) | + (active against 1 or more insects described above up to 100% mortality. This activity is indicated by a “+”) | + (active against 1 or more insects described above up to 100% mortality. This activity is indicated by a “+”) | – | – | – | –
CCOC(OCC)c1c(SC(F)(F)F)c(C#N)nn1-c1c(Cl)cc(C(F)(F)F)cc1Cl [Compound 18, 3-Cyano-1-(2,6-dichloro-4-trifluoromethylphenyl)-5-diethoxymethyl-4-trifluoromethylthiopyrazole] | – | – | – | + (active against 1 or more insects described above up to 100% mortality. This activity is indicated by a “+”) | + (active against 1 or more insects described above up to 100% mortality. This activity is indicated by a “+”) | + (active against 1 or more insects described above up to 100% mortality. This activity is indicated by a “+”) | + (active against 1 or more insects described above up to 100% mortality. This activity is indicated by a “+”)
